# Test results as given in paper PMC4512978, “Synthesis and evaluation in rats of homologous series of [^18F]-labeled dopamine D2/3 receptor agonists based on the 2-aminomethylchroman scaffold as potential PET tracers” (EJNMMI Research, 2015).
# Experiment: Ex vivo tissue uptake after the PET scan (gamma-counter)
# Format: in vivo, Sprague-Dawley rats
# Method: After the end of the PET scans (i.e., 98 ± 8 min after tracer injection), anesthetized animals were sacrificed by heart extirpation and dissected. Samples of brain and peripheral tissues were taken. All samples were weighed, and their radioactivity was measured in a gamma-counter.
# [1] = raclopride 1 mg/kg, after PET scan
smiles,measurement,setting,value
Oc1ccc2c(c1)O[C@@H](CNCc1ccc(OCC[18F])cc1)CC2 [[^18F]FEt-AMC13],Striatal SBR based on after-scan biodistribution measurements,1 mg/kg raclopride,0.74 ± 0.27
same,decrease of biodistribution-based striatal SBR,"1 mg/kg raclopride, p = 0.17",31%
same,"Ex vivo uptake, Adipose tissue",RAC,0.09±0.02 SUV
same,"Ex vivo uptake, Adrenal glands",RAC,0.59±0.20 SUV
same,"Ex vivo uptake, Bladder",RAC,0.83±0.64 SUV
same,"Ex vivo uptake, Blood cells",RAC,0.06±0.01 SUV
same,"Ex vivo uptake, Bone",RAC,0.17±0.05 SUV
same,"Ex vivo uptake, Bone marrow",RAC,2.00±3.17 SUV
same,"Ex vivo uptake, Caecum",RAC,0.63±0.84 SUV
same,"Ex vivo uptake, Duodenum",RAC,4.01±4.63 SUV
same,"Ex vivo uptake, Heart",RAC,0.16±0.02 SUV
same,"Ex vivo uptake, Kidney",RAC,0.48±0.07 SUV
same,"Ex vivo uptake, Large intestine",RAC,0.41±0.33 SUV
same,"Ex vivo uptake, Large intestine content",RAC,0.09±0.12 SUV
same,"Ex vivo uptake, Liver",RAC,1.43±0.30 SUV
same,"Ex vivo uptake, Lung",RAC,1.38±0.20 SUV
same,"Ex vivo uptake, Muscle",RAC,0.19±0.05 SUV
same,"Ex vivo uptake, Pancreas",RAC,1.47±0.32 SUV
same,"Ex vivo uptake, Plasma",RAC,0.23±0.01 SUV
same,"Ex vivo uptake, Prostate",RAC,0.40±0.26 SUV
same,"Ex vivo uptake, Small intestine",RAC,2.39±1.94 SUV
same,"Ex vivo uptake, Small intestine content",RAC,24.6±32.8 SUV
same,"Ex vivo uptake, Spleen",RAC,0.52±0.10 SUV
same,"Ex vivo uptake, Stomach",RAC,2.09±1.19 SUV
same,"Ex vivo uptake, Submandibular gland",RAC,0.28±0.06 SUV
same,"Ex vivo uptake, Testes",RAC,0.42±0.10 SUV
same,"Ex vivo uptake, Thymus",RAC,0.30±0.06 SUV
same,"Ex vivo uptake, Urine",RAC,4.40±3.88 SUV
same,"Ex vivo uptake, Whole blood",RAC,0.17±0.01 SUV
same,"Ex vivo uptake, Adipose tissue",SAL,0.30±0.42 SUV
same,"Ex vivo uptake, Adrenal glands",SAL,0.84±0.29 SUV
same,"Ex vivo uptake, Bladder",SAL,1.00±0.52 SUV
same,"Ex vivo uptake, Blood cells",SAL,0.07±0.01 SUV
same,"Ex vivo uptake, Bone",SAL,0.24±0.21 SUV
same,"Ex vivo uptake, Bone marrow",SAL,0.68±0.38 SUV
same,"Ex vivo uptake, Caecum",SAL,0.46±0.29 SUV
same,"Ex vivo uptake, Duodenum",SAL,1.15±0.25 SUV
same,"Ex vivo uptake, Heart",SAL,0.15±0.04 SUV
same,"Ex vivo uptake, Kidney",SAL,0.64±0.20 SUV
same,"Ex vivo uptake, Large intestine",SAL,0.57±0.36 SUV
same,"Ex vivo uptake, Large intestine content",SAL,0.06±0.03 SUV
same,"Ex vivo uptake, Liver",SAL,1.51±0.14 SUV
same,"Ex vivo uptake, Lung",SAL,1.67±0.41 SUV
same,"Ex vivo uptake, Muscle",SAL,0.17±0.04 SUV
same,"Ex vivo uptake, Pancreas",SAL,1.31±0.31 SUV
same,"Ex vivo uptake, Plasma",SAL,0.22±0.04 SUV
same,"Ex vivo uptake, Prostate",SAL,0.62±0.18 SUV
same,"Ex vivo uptake, Small intestine",SAL,3.15±2.00 SUV
same,"Ex vivo uptake, Small intestine content",SAL,54.2±57.7 SUV
same,"Ex vivo uptake, Spleen",SAL,0.46±0.05 SUV
same,"Ex vivo uptake, Stomach",SAL,1.36±0.35 SUV
same,"Ex vivo uptake, Submandibular gland",SAL,0.36±0.12 SUV
same,"Ex vivo uptake, Testes",SAL,0.40±0.06 SUV
same,"Ex vivo uptake, Thymus",SAL,0.32±0.06 SUV
same,"Ex vivo uptake, Urine",SAL,11.0±9.5 SUV
same,"Ex vivo uptake, Whole blood",SAL,0.16±0.03 SUV
same,"Ex vivo uptake, Brainstem",[1],0.16 ± 0.04 SUV
same,"Ex vivo uptake, Cerebellum",[1],0.13 ± 0.02 SUV
same,"Ex vivo uptake, Cortex",[1],0.16 ± 0.04 SUV
same,"Ex vivo uptake, Hippocampus",[1],0.23 ± 0.08 SUV
same,"Ex vivo uptake, Mean brain uptake",[1],0.16 ± 0.04 SUV
same,"Ex vivo uptake, Olfactory bulbs",[1],0.15 ± 0.04 SUV
same,"Ex vivo uptake, Parietal bone",[1],0.10 ± 0.01 SUV
same,"Ex vivo uptake, Pituitary",[1],0.59 ± 0.20 SUV
same,"Ex vivo uptake, Rest of brain",[1],0.18 ± 0.03 SUV
same,"Ex vivo uptake, Striatum",[1],0.23 ± 0.08 SUV
same,"Ex vivo uptake, Thalamus + hypothalamus",[1],0.19 ± 0.05 SUV
same,Striatal SBR based on after-scan biodistribution measurements,saline pre-treated,1.07 ± 0.10
same,"Ex vivo uptake, Brainstem","saline, after PET scan",0.18 ± 0.02 (6) SUV
same,"Ex vivo uptake, Cerebellum","saline, after PET scan",0.13 ± 0.01 (8) SUV
same,"Ex vivo uptake, Cortex","saline, after PET scan",0.18 ± 0.01 (5) SUV
same,"Ex vivo uptake, Hippocampus","saline, after PET scan",0.22 ± 0.02 (2) SUV
same,"Ex vivo uptake, Mean brain uptake","saline, after PET scan",0.18 ± 0.01 SUV
same,"Ex vivo uptake, Olfactory bulbs","saline, after PET scan",0.17 ± 0.01 (7) SUV
same,"Ex vivo uptake, Parietal bone","saline, after PET scan",0.10 ± 0.01 SUV
same,"Ex vivo uptake, Pituitary","saline, after PET scan",0.76 ± 0.08 SUV
same,"Ex vivo uptake, Rest of brain","saline, after PET scan",0.20 ± 0.02 (3) SUV
same,"Ex vivo uptake, Thalamus + hypothalamus","saline, after PET scan",0.19 ± 0.003 (4) SUV
same,"Ex vivo uptake, Striatum","saline, after PET scan (98 ± 8 min p.i.)",0.28 ± 0.03 (1) SUV
